Test results taken from patent US20190125790A1, “USE OF HYPOCHLOROUS ACID AS A TOPICAL ANTIMICROBIAL” (BIIOSMART TECHNOLOGIES LLC, priority 2016, published 2019).

Assay: Controlled randomized single blind clinical trial in surgical open wounds
Format: in vivo, human
Protocol: The biocompatibility of the 0.046% HOCl concentration aqueous solution was tested in a three way controlled and randomized single blind clinical trial. Patients were randomized into three groups (60 patients per group). The antiseptic efficacy and biocompatibility of the test solution vs. povidone-iodine vs. chlorhexidine (Chlorhexidine Gluconate—CHG) in surgical—clean and clean contaminated—open wounds was evaluated in 180 patients admitted to the surgical facilities of Erasmo Meoz Hospital in Cucuta, Colombia.

**Q.** With `OCl` [HOCl, hypochlorous acid] as the compound, how does the infected patients (0.046% HOCl aqueous solution, 60 patients per group, surgical open wounds) read?
**A.** The infected patients was “no infected patients”.

**Q.** What about the “wound appearance (biocompatibility)” value (human, in vivo) of the same compound?
**A.** The value was “define edges, good color and hydrated wound beds”.
